The values that follow are results of earlier work, collected in patent US9265822B2 (priority 2009, dated 2016).

SMILES strings stand for the structures.

The test system of the data set is American isolates of H3N2.

As to `NC12CC3CC(CC(C3)C1)C2` [amantadine], the measured resistance is 91%. As for `CC(N)C12CC3CC(CC(C3)C1)C2` (centres unmarked) [rimantadine], the measured resistance was 91%.
